From patent US20190275012A9, “SUBSTITUTED THIAZOLO-PYRIDINE COMPOUNDS AS MALT1 INHIBITORS” (Lupin Limited, priority 2016, published 2019)

Assays:
[1] = test system: NF-kB transcriptional activity in HEK-293-NF-kB-Luc cell line overexpressing MALT1; assay: NF-kB reporter assay (luciferase, MALT1 stably overexpressed); format: cell-based; conditions: Homo sapiens, 24 h, HEK-293-NF-kB-Luc cells stably overexpressing MALT1, 24 h treatment, Bright Glo luminescence; read-out: NF-kB inhibition IC50
Outline: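 Inhibition of NF-κB activity was expressed relative to 0.1% DMSO wells, from luminescence after 10 min Bright Glo at ambient temperature. Compounds had been applied for 24 h to adhered MALT1-overexpressing HEK-293 NF-κB luciferase reporter cells.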

[2] = test system: OCI-Ly-10 cells; assay: Anticancer assay (14 days), cell viability by CCK-8; format: cell-based; conditions: Homo sapiens, OCI-Ly10, 336 h, 14 days treatment, fresh treatment every 5th day, CCK-8 viability, read-out: Ly-10 (14d) inhibition IC50
Procedure: OCI-Ly-10 cells (UHN, Canada) seeded in culture media (IMDM+20% FBS) in 96-well plates were treated with various concentrations of the test compounds. Cells were treated for a period of 14 days (13-15 days depending on the confluency of cells) with fresh treatments every 5th day. After the first treatment, for all subsequent treatments, the cells were centrifuged, the spent media was removed and fresh media containing the test compound was added. Cell viability was assessed using CCK-8 kit (Dojindo Laboratories, China) as per manufacturer's instructions. Plates were read in colorimeter and absorbance was detected. (Detection at 450 nm; Background correction at 650 nm). % inhibition was calculated relative to the samples containing media with 0.1% DMSO alone as per the following formula

[3] = target: T1, full length MALT1 enzyme (Homo sapiens, UniProt Q9UDY8); assay: MALT1 biochemical assay (fluorescence based, Ac-Leu-Arg-Ser-Arg-AMC cleavage); conditions: full length MALT1 protein, 2 h pre-incubation at RT, tetrapeptide substrate Ac-Leu-Arg-Ser-Arg-AMC, read-out: Malt 1 inhibition IC50
T1 construct: a fluorescence based assay with full length MALT1 enzyme
T1 sequence (Q9UDY8 1-824): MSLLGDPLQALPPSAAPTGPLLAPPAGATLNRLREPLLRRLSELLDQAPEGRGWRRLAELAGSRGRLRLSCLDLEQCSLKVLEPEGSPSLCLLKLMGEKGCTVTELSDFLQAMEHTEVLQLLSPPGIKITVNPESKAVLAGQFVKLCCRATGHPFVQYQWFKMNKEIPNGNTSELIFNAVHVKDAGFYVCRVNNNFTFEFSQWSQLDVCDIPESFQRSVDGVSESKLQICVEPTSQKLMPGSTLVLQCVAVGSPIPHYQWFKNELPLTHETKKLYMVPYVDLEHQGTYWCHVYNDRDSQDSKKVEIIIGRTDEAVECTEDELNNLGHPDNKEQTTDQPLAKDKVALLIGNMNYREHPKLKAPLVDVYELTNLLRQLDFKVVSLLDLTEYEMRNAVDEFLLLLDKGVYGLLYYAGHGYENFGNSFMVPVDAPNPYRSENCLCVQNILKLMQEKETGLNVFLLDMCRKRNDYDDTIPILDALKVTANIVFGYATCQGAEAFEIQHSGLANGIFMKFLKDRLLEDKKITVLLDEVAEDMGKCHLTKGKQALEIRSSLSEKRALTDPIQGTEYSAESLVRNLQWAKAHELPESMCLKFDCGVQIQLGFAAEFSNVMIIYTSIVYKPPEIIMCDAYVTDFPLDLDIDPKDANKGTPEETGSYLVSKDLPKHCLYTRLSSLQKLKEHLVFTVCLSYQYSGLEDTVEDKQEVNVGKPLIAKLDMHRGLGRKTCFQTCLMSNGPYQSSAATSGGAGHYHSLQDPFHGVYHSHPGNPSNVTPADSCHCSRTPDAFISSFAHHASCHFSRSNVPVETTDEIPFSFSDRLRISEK
Outline: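 Full-length MALT1 (100-300 ng/well) was pre-incubated with compound for 2 h at RT, then 100 μM Ac-LRSR-AMC was added for 4-12 h. Buffer was 50 mM MES, 150 mM NaCl, 0.1% CHAPS, 1 M ammonium citrate, 10 mM DTT, pH 7, with 0.5% DMSO. IC50 was derived from AMC fluorescence (ex 360/em 460 nm).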

IC50 [2] | IC50 [3] | SMILES | IC50 [1]
501 to 1500 nM |  | COCC1CCCN(c2c(NC(=O)Nc3cnc(OC)c(Cl)c3)cnc3sc(C)nc23)C1 (single isomer, unassigned) [Compound 51b, 1-(5-chloro-6-methoxypyridin-3-yl)-3-(7-(3-(methoxymethyl)piperidin-1-yl)-2-methylthiazolo[5,4-b]pyridin-6-yl)urea] | 
26 to 100 nM |  | COc1nc(-n2ccnn2)c(Cl)cc1NC(=O)Nc1cnc2sc(C)nc2c1C(C)OC (single isomer, unassigned) [Compound 91b, 1-(5-Chloro-2-methoxy-6-(1H-1,2,3-triazol-1-yl)pyridin-3-yl)-3-(7-(1-methoxyethyl)-2-methylthiazolo[5,4-b]pyridin-6-yl)urea] | 
101 to 250 nM |  | Cc1nc2c(C3CCCO3)c(NC(=O)Nc3cnc(-n4nccn4)c(Cl)c3)cnc2s1 (single isomer, unassigned) [Compound 136b, 1-(5-Chloro-6-(2H-1,2,3-triazol-2-yl)pyridin-3-yl)-3-(2-methyl-7-(tetrahydrofuran-2-yl)thiazolo[5,4-b]pyridin-6-yl)urea] | 1 to 100 nM
26 to 100 nM |  | COC(C)c1c(NC(=O)Nc2ccc(-c3nnco3)c(Cl)c2)cnc2sc(C)nc12 (single isomer, unassigned) [Compound 203b, (S) or (R)-1-(3-Chloro-4-(1,3,4-oxadiazol-2-yl)phenyl)-3-(7-(1-methoxyethyl)-2-methylthiazolo[5,4-b]pyridin-6-yl)urea] | 1 to 100 nM
101 to 250 nM |  | COC(C)c1c(NC(=O)Nc2cnc(-n3nccn3)c(C(F)F)c2)cnc2sc(C)nc12 (single isomer, unassigned) [Compound 205b, (S) or (R)-1-(5-(Difluoromethyl)-6-(2H-1,2,3-triazol-2-yl)pyridin-3-yl)-3-(7-(1-methoxyethyl)-2-methylthiazolo[5,4-b]pyridin-6-yl)urea] | 101 to 500 nM
101 to 250 nM |  | COC(C)c1c(NC(=O)Nc2cnc(-n3ccnn3)c(C(F)F)c2)cnc2sc(C)nc12 (single isomer, unassigned) [Compound 206b, (S) or (R)-1-(5-(Difluoromethyl)-6-(1H-1,2,3-triazol-1-yl)pyridin-3-yl)-3-(7-(1-methoxyethyl)-2-methylthiazolo[5,4-b]pyridin-6-yl)urea] | 1 to 100 nM
101 to 250 nM |  | COC(C)c1c(NC(=O)Nc2ccc(-n3nccn3)c(C#N)c2)cnc2sc(C)nc12 (single isomer, unassigned) [Compound 208b, (S) or (R)-1-(3-Cyano-4-(2H-1,2,3-triazol-2-yl)phenyl)-3-(7-(1-methoxyethyl)-2-methylthiazolo[5,4-b]pyridin-6-yl)urea] | 
101 to 250 nM |  | COCC(OC)c1c(NC(=O)Nc2cnc(OC)c(Cl)c2)cnc2sc(C)nc12 (stereo not drawn) [Compound 34a, 1-(5-chloro-6-methoxypyridin-3-yl)-3-(7-(1,2-dimethoxyethyl)-2-methylthiazolo[5,4-b]pyridin-6-yl)urea] | 101 to 500 nM
101 to 250 nM |  | Cc1nc2c(C(C3CC3)N(C)C)c(NC(=O)Nc3cnc(-n4nccn4)c(C(F)(F)F)c3)cnc2s1 (stereo not drawn) [Compound 76a, 1-(6-(2H-1,2,3-Triazol-2-yl)-5-(trifluoromethyl)pyridin-3-yl)-3-(7-(cyclopropyl(dimethylamino)methyl)-2-methylthiazolo[5,4-b]pyridin-6-yl)urea] | 

Second part, the compound before the results:

SMILES | IC50 [2] | IC50 [3] | IC50 [1]
CCOC(C)c1c(NC(=O)Nc2cnc(-n3nccn3)c(Cl)c2)cnc2sc(C)nc12 (racemic) [Compound 164, 1-(5-Chloro-6-(2H-1,2,3-triazol-2-yl)pyridin-3-yl)-3-(7-(1-ethoxyethyl)-2-methylthiazolo[5,4-b]pyridin-6-yl)urea] | 101 to 250 nM |  | 1 to 100 nM
CCOc1nc(-n2nccn2)c(C(F)(F)F)cc1NC(=O)Nc1cnc2sc(C)nc2c1C(C)OC (single isomer, unassigned) [Compound 221, (S) or (R)-1-(2-ethoxy-6-(2H-1,2,3-triazol-2-yl)-5-(trifluoromethyl)pyridin-3-yl)-3-(7-(1-methoxyethyl)-2-methylthiazolo[5,4-b]pyridin-6-yl)urea] | 26 to 100 nM |  | 1 to 100 nM
COCCc1c(NC(=O)Nc2cnc(OC)c(Cl)c2)cnc2sc(C)nc12 [Compound 33, 1-(5-Chloro-6-methoxypyridin-3-yl)-3-(7-(2-methoxyethyl)-2-methylthiazolo[5,4-b]pyridin-6-yl)urea] | 501 to 1500 nM |  | 
O=C(Nc1cnc(-n2nccn2)c(Cl)c1)Nc1cnc2scnc2c1C1CC1 [Compound 35, 1-(5-Chloro-6-(2H-1,2,3-triazol-2-yl)pyridin-3-yl)-3-(7-cyclopropylthiazolo[5,4-b]pyridin-6-yl)urea] | 26 to 100 nM |  | 1 to 100 nM
COCC(CN(C)c1c(NC(=O)Nc2cnc(-n3nccn3)c(Cl)c2)cnc2sc(C)nc12)OC (stereo not drawn) [Compound 43, 1-(5-Chloro-6-(2H-1,2,3-triazol-2-yl)pyridin-3-yl)-3-(7-((2,3-dimethoxypropyl)(methyl)amino)-2-methylthiazolo[5,4-b]pyridin-6-yl)urea] | 26 to 100 nM |  | 
COCCN(C)c1c(NC(=O)Nc2cnc(OC)c(Cl)c2)cnc2sc(C)nc12 [Compound 45, 1-(5-Chloro-6-methoxypyridin-3-yl)-3-(7-((2-methoxyethyl)(methyl)amino)-2-methylthiazolo[5,4-b]pyridin-6-yl)urea] | 501 to 1500 nM |  | 
Cc1nc2c(C3CC3)c(NC(=O)Nc3cnc(-n4ccnn4)c(Cl)c3)cnc2s1 [Compound 61, 1-(5-Chloro-6-(1H-1,2,3-triazol-1-yl)pyridin-3-yl)-3-(7-cyclopropyl-2-methylthiazolo[5,4-b]pyridin-6-yl)urea] | 501 to 1500 nM |  | 
Cc1ncn(-c2ccc(NC(=O)Nc3cnc4sc(C)nc4c3C3CC3)cc2C#N)n1 [Compound 171, 1-(3-Cyano-4-(3-methyl-1H-1,2,4-triazol-1-yl)phenyl)-3-(7-eyelopropyl-2-methylthiazolo[5,4-b]pyridin-6-yl)urea] |  | 51 to 100 nM | 101 to 500 nM
Cc1nc2c(C3CC3)c(NC(=O)Nc3ccc(-n4ncnc4C)c(C#N)c3)cnc2s1 [Compound 172, 1-(3-Cyano-4-(5-methyl-1H-1,2,4-triazol-1-yl)phenyl)-3-(7-eyelopropyl-2-methylthiazolo[5,4-b]pyridin-6-yl)urea] |  | 51 to 100 nM | 501 to 1500 nM
COCc1c(NC(=O)Nc2cnc(-n3nccn3)c(Cl)c2)cnc2sc(C)nc12 [Compound 176, 1-(5-Chloro-6-(2H-1,2,3-triazol-2-yl)pyridin-3-yl)-3-(7-(metdoxymethyl)-2-methylthiazolo[5,4-b]pyridin-6-yl)urea] |  | 1 to 50 nM | 101 to 500 nM
Cc1nc2c(C3(C)CC3)c(NC(=O)Nc3ccc(-n4nccn4)c(Cl)c3)cnc2s1 [Compound 179, 1-(3-Chloro-4-(2H-1,2,3-triazol-2-yl)phenyl)-3-(2-methyl-7-(1-methylcyclopropyl)thiazolo[5,4-b]pyridin-6-yl)urea] |  | 1 to 50 nM | 1 to 100 nM
Cc1nc2c(C(C)C)c(NC(=O)Nc3cnc(-n4nccn4)c(C(F)(F)F)c3)cnc2s1 [Compound 191, 1-(6-(2H-1,2,3-triazol-2-yl)-5-(trifluoromethyl)pyridin-3-yl)-3-(7-isopropyl-2-methylthiazolo[5,4-b]pyridin-6-yl)urea] |  | 1 to 50 nM | 1 to 100 nM
Cc1nc2c(C3CC3)c(NC(=O)Nc3cc(Cl)cnc3OCCN(C)C)cnc2s1 [Compound 195, 1-(5-Chloro-2-(2-(dimethylamino)ethoxy)pyridin-3-yl)-3-(7-cyclopropyl-2-methylthiazolo[5,4-b]pyridin-6-yl)urea] |  | 51 to 100 nM | 1 to 100 nM
